Reference: US10005771B2, “Bicyclic derivatives having β2 adrenergic agonist and M3 muscarinic antagonist activities” (Almirall, S.A., priority 2014, dated 2018)

How the values were obtained:
[1] = target: T1, human adrenergic β2 receptor (Homo sapiens, UniProt P07550); experiment: Human adrenergic β2 receptor binding assay (3H-CGP12177, Sf9 membranes); conditions: membranes from Sf9 cells, 0.6 nM 3H-CGP12177, 60 minutes at room temperature
T1 construct: purchased Perkin Elmer; host or cells: Sf9 cells
Protocol: Test 1: Human Adrenergic β1 and β2 Receptor Binding Assays
The study of binding to human adrenergic beta1 and beta2 receptors was performed using commercial membranes prepared from Sf9 cells where they are overexpressed (Perkin Elmer). The membrane suspensions (16 μg/well for beta1 and 5 μg/well for beta2) in assay buffer (75 mM Tris/HCl with 12.5 mM MgCl2 and 2 mM EDTA pH=7.4) were incubated with 0.14 or 0.6 nM of 3H-CGP12177 (Amersham) for beta 1 and beta 2 receptors respectively in a final volume of 250 μl, in GFC Multiscreen 96 well plates (Millipore) previously treated with assay buffer containing 0.3% PEI (Sigma). Non specific binding was measured in the presence of 1 μM propanolol. Incubation was maintained for 60 minutes at room temperature and with gentle shaking. The binding reactions were terminated by filtration and washing with 2.5 volumes of Tris/HCl 50 mM pH=7.4. The affinity of each test compound to the receptor was determined by using ten different concentrations ran in duplicate. IC50s were calculated using Activity Base software from IDBS and the four parameters-log equation.

[2] = target: T2, human muscarinic M3 receptors (Homo sapiens, UniProt P20309); experiment: Human muscarinic M3 receptors binding assay ([3H]-NMS, CHO-K1 membranes); conditions: membranes from CHO-K1 cells, [3H]-NMS radioligand, two hours incubation
T2 construct: purchased Perkin Elmer; host or cells: CHO-K1 cells
Protocol: Test 2: Human Muscarinic M3 Receptors Binding Assays
The study of binding to human muscarinic M3 receptors was performed using commercial membranes (Perkin Elmer) prepared from CHO-K1 cells.
Radioligand binding experiments were conducted in 96 polypropylene well plates in a total volume of 200 μl. All reagents were dissolved in assay binding buffer (PBS with calcium and magnesium, SIGMA), except compounds that were dissolved in DMSO 100%. Non-specific binding (NSB) was measured in the presence of 1 μM atropine. [3H]-NM, used as the radioligand was incubated with membranes that express human muscarinic M3 at concentration of 4.9 μg/well.
After an incubation period of two hours with gentle shaking, 150 μl of the reaction mix were transferred to 96 GF/C filter plates (Millipore), previously treated with wash buffer (Tris 50 mM; NaCl 100 mM; pH: 7.4), containing 0.05% PEI (Sigma) during one hour. Bound and free [3H]-NMS were separated by rapid vacuum filtration in a manifold from Millipore and washed four times with ice cold wash buffer. After drying 30 min, 30 μl of OPTIPHASE Supermix were added to each well and radioactivity quantified using a Microbeta microplate scintillation counter.
The affinity of each test compound to the receptor was determined by using ten different concentrations ran in duplicate. IC50s were calculated using Activity Base software from IDBS and the four parameters-log equation.

T1 sequence (P07550 whole entry): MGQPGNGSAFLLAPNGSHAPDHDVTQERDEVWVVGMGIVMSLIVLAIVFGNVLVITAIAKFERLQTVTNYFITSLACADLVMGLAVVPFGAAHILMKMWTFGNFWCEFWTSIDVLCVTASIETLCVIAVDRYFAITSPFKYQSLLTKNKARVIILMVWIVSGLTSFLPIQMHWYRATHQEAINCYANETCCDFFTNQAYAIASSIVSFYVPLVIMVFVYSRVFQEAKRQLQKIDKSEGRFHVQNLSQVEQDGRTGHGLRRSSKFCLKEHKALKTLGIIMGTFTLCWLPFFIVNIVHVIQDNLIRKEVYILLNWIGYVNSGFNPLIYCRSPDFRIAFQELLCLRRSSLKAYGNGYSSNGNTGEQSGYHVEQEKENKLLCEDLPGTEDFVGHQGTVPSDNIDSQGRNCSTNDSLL
T2 sequence (P20309 whole entry): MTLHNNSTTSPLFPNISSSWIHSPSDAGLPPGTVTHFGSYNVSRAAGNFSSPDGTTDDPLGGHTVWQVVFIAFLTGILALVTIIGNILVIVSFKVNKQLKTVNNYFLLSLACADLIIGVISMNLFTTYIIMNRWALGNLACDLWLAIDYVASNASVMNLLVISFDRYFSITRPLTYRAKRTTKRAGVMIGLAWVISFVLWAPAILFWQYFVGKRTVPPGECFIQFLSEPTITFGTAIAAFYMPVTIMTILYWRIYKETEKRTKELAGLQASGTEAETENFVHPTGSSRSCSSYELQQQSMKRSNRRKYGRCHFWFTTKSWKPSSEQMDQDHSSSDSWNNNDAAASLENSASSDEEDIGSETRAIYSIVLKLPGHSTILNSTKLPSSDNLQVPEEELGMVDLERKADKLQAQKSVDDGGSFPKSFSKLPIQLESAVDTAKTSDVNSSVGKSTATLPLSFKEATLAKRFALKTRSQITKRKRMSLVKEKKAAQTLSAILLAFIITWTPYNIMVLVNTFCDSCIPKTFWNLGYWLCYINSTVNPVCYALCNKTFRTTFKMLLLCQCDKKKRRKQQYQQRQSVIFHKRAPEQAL

COc1cc(OCC(=O)OCCCc2cccc(C3(C(=O)O[C@H]4CN5CCC4CC5)CCCCC3)c2)c(Cl)cc1CNC[C@H](O)c1ccc(O)c2[nH]c(=O)ccc12 [Example 10, (3R)-1-azabicyclo[2.2.2]oct-3-yl 1-{3-[3-({[2-chloro-4-({[(2R)-2-hydroxy-2-(8-hydroxy-2-oxo-1,2-dihydroquinolin-5-yl)ethyl]amino}methyl)-5-methoxyphenoxy]acetyl}oxy)propyl]phenyl}cyclohexanecarboxylate]
IC50 [1]: 7.3 nM
IC50 [2]: 0.88 nM

COc1cc(C(=O)NCCCCc2cccc(C3(C(=O)O[C@H]4CN5CCC4CC5)CCCCC3)c2)c(Cl)cc1CNC[C@H](O)c1ccc(O)c2[nH]c(=O)ccc12 [Example 9, (3R)-1-azabicyclo[2.2.2]oct-3-yl 1-[3-(4-{[2-chloro-4-({[(2R)-2-hydroxy-2-(8-hydroxy-2-oxo-1,2-dihydroquinolin-5-yl)ethyl]amino}methyl)-5-methoxybenzoyl]amino}butyl)phenyl]cyclohexanecarboxylate]
IC50 [1]: 3.5 nM
IC50 [2]: 0.95 nM

COc1cc(NC(=O)CCCc2cccc(C3(C(=O)OCC4CCN(C)CC4)CCCCC3)c2)c(Cl)cc1CNC[C@H](O)c1ccc(O)c2[nH]c(=O)ccc12 [Example 29, (1-methylpiperidin-4-yl)methyl 1-[3-(4-{[2-chloro-4-({[(2R)-2-hydroxy-2-(8-hydroxy-2-oxo-1,2-dihydroquinolin-5-yl)ethyl]amino}methyl)-5-methoxyphenyl]amino}-4-oxobutyl)phenyl]cyclohexanecarboxylate]
IC50 [1]: 2.2 nM
IC50 [2]: 0.57 nM

O=C(CCCc1cccc(C2(C(=O)O[C@H]3CN4CCC3CC4)CCCCC2)c1)Nc1ccc(CNC[C@H](O)c2ccc(O)c3[nH]c(=O)ccc23)nc1 [Example 11, (3R)-1-azabicyclo[2.2.2]oct-3-yl 1-[3-(4-{[6-({[(2R)-2-hydroxy-2-(8-hydroxy-2-oxo-1,2-dihydroquinolin-5-yl)ethyl]amino}methyl)pyridin-3-yl]amino}-4-oxobutyl)phenyl]cyclohexanecarboxylate]
IC50 [1]: 23 nM
IC50 [2]: 0.49 nM

COc1cc(OCC(=O)OC2CCC(Cc3cccc(C4(C(=O)O[C@H]5CN6CCC5CC6)CCCCC4)c3)CC2)c(Cl)cc1CNC[C@H](O)c1ccc(O)c2[nH]c(=O)ccc12 (stereo partly drawn) [Example 14, (3R)-1-azabicyclo[2.2.2]oct-3-yl 1-(3-{[4-({[2-chloro-4-({[(2R)-2-hydroxy-2-(8-hydroxy-2-oxo-1,2-dihydroquinolin-5-yl)ethyl]amino}methyl)-5-methoxyphenoxy]acetyl}oxy)cyclohexyl]methyl}phenyl)cyclohexanecarboxylate]
IC50 [1]: 9 nM
IC50 [2]: 7.1 nM

COc1cc(C(=O)OCCCc2cccc(C3(C(=O)O[C@H]4CN5CCC4CC5)CCCCC3)c2)c(Cl)cc1CNC[C@H](O)c1ccc(O)c2[nH]c(=O)ccc12 [Example 13, 3-[3-(1-{[(3R)-1-azabicyclo[2.2.2]oct-3-yloxy]carbonyl}cyclohexyl)phenyl]propyl 2-chloro-4-({[(2R)-2-hydroxy-2-(8-hydroxy-2-oxo-1,2-dihydroquinolin-5-yl)ethyl]amino}methyl)-5-methoxybenzoate]
IC50 [1]: 4.4 nM
IC50 [2]: 0.62 nM

COc1cc(OCC(=O)NCCCCc2cccc(C3(C(=O)O[C@H]4CN5CCC4CC5)CCCCC3)c2)c(Cl)cc1CNCC(O)c1ccc(O)c2[nH]c(=O)ccc12 (stereo partly drawn) [Example 24, (3R)-1-azabicyclo[2.2.2]oct-3-yl 1-{3-[4-({[2-chloro-4-({[2-hydroxy-2-(8-hydroxy-2-oxo-1,2-dihydroquinolin-5-yl)ethyl]amino}methyl)-5-methoxyphenoxy]acetyl}amino)butyl]phenyl}cyclohexanecarboxylate]
IC50 [1]: 1.9 nM
IC50 [2]: 0.33 nM
